30 molecules from US20260035387A1 (BIOGEN MA INC., priority 2022, published 2026) can be followed below.

Where only a bound is given, the exact number is not on record here.

One may read the IC50 as the concentration that inhibits the measured activity by half.

The subject of the assay is mutant Huntington (HTT) protein. Kind of assay: HTT Mutant HTRF iPSC assay (mHTT protein lowering). It is filed as cell-based. Conditions: human iPSC derived from a HTT patient with a poly-Q49 mutation. Background: Time-resolved FRET reads energy transfer from a long-lived donor to a nearby acceptor.
The molecule `COc1c(NC(=O)c2nc3ccc(N4CC[C@H](N(C)C)C4)nc3s2)cn2cc(C)nc2c1F` [Compound 91, (S)-5-(3-(dimethylamino)pyrrolidin-1-yl)-N-(8-fluoro-7-methoxy-2-methylimidazo[1,2-a]pyridin-6-yl)thiazolo[5,4-b]pyridine-2-carboxamide] yielded a 50% inhibitory concentration (IC50) of less than 100 nM. To `Cc1cn2cc(NC(=O)c3nc4ccc(N5CC[C@H](N(C)C)C5)nc4s3)cc(F)c2n1` [Compound 93, (S)-5-(3-(dimethylamino)pyrrolidin-1-yl)-N-(8-fluoro-2-methylimidazo[1,2-a]pyridin-6-yl)thiazolo[5,4-b]pyridine-2-carboxamide] belongs less than 100 nM; to `COc1cc(NC(=O)c2nc3ccc(N4CCC5(CCCN5C)C4)nc3s2)cn2cc(C)nc12` (stereo not drawn) [Compound 95, N-(8-methoxy-2-methylimidazo[1,2-a]pyridin-6-yl)-5-(1-methyl-1,7-diazaspiro[4.4]nonan-7-yl)thiazolo[5,4-b]pyridine-2-carboxamide], less than 100 nM; to `CCN1CCN(c2ccc3nc(C(=O)Nc4cn5cc(C)nc5c(OC)n4)sc3n2)CC1` [Compound 96, 5-(4-ethylpiperazin-1-yl)-N-(8-methoxy-2-methylimidazo[1,2-a]pyrazin-6-yl)thiazolo[5,4-b]pyridine-2-carboxamide], less than 100 nM. On to `Cc1cn2cc(NC(=O)c3nc4ccc(N5CCC6(CCCN6C)C5)nc4s3)cc(F)c2n1` (stereo not drawn) [Compound 98, N-(8-fluoro-2-methylimidazo[1,2-a]pyridin-6-yl)-5-(1-methyl-1,7-diazaspiro[4.4]nonan-7-yl)thiazolo[5,4-b]pyridine-2-carboxamide], for which the IC50 was less than 100 nM. For `Cc1cn2cc(NC(=O)c3nc4ccc(N5CCC(N6CCC6)C5)nc4s3)cc(F)c2n1` (stereo not drawn) [Compound 99, 5-(3-(azetidin-1-yl)pyrrolidin-1-yl)-N-(8-fluoro-2-methylimidazo[1,2-a]pyridin-6-yl)thiazolo[5,4-b]pyridine-2-carboxamide] the value was less than 100 nM; for `COc1nc(NC(=O)c2nc3ccc(N4CCC(N(C)C)C4)nc3s2)cn2cc(C)nc12` (stereo not drawn) [Compound 100, 5-(3-(dimethylamino)pyrrolidin-1-yl)-N-(8-methoxy-2-methylimidazo[1,2-a]pyrazin-6-yl)thiazolo[5,4-b]pyridine-2-carboxamide], less than 100 nM.

Molecule `Cc1cn2cc(NC(=O)c3nc4ccc(N5CCNCC5)nc4s3)cc(F)c2n1` [Compound 102, N-(8-fluoro-2-methylimidazo[1,2-a]pyridin-6-yl)-5-(piperazin-1-yl)thiazolo[5,4-b]pyridine-2-carboxamide] displayed a 50% inhibitory concentration (IC50) of less than 100 nM.

The molecule `Cc1cn2cc(NC(=O)c3nc4ccc(NC5CC(C)(C)NC(C)(C)C5)nc4s3)cc(F)c2n1` [Compound 103, N-(8-fluoro-2-methylimidazo[1,2-a]pyridin-6-yl)-5-((2,2,6,6-tetramethylpiperidin-4-yl)amino)thiazolo[5,4-b]pyridine-2-carboxamide] gave an IC50 of less than 100 nM. To `Cc1cn2cc(NC(=O)c3nc4ccc(N5C[C@H]6CN(C)C[C@H]65)nc4s3)cc(F)c2n1` [Compound 104, N-(8-fluoro-2-methylimidazo[1,2-a]pyridin-6-yl)-5-((1R,5S)-3-methyl-3,6-diazabicyclo[3.2.0]heptan-6-yl)thiazolo[5,4-b]pyridine-2-carboxamide] belongs less than 100 nM; to `Cc1cn2cc(NC(=O)c3nc4ccc(N5C[C@@H]6CCN[C@@H]6C5)nc4s3)cc(F)c2n1` [Compound 105, N-(8-fluoro-2-methylimidazo[1,2-a]pyridin-6-yl)-5-((3aS,6aS)-hexahydropyrrolo[3,4-b]pyrrol-5(1H)-yl)thiazolo[5,4-b]pyridine-2-carboxamide], less than 100 nM; to `Cc1cn2cc(NC(=O)c3nc4ccc(N5C[C@@H]6CN(C)C[C@@H]65)nc4s3)cc(F)c2n1` [Compound 106, N-(8-fluoro-2-methylimidazo[1,2-a]pyridin-6-yl)-5-((1S,5R)-3-methyl-3,6-diazabicyclo[3.2.0]heptan-6-yl)thiazolo[5,4-b]pyridine-2-carboxamide], 100 to 1000 nM. To `CN[C@H]1CCN(c2ccc3nc(C(=O)Nc4cc(F)c5nc(C)cn5c4)sc3n2)C1` [Compound 107, (S)-N-(8-fluoro-2-methylimidazo[1,2-a]pyridin-6-yl)-5-(3-(methylamino)pyrrolidin-1-yl)thiazolo[5,4-b]pyridine-2-carboxamide] belongs less than 100 nM; to `Cc1cn2cc(NC(=O)c3nc4ccc(N5C[C@H]6CCN[C@H]6C5)nc4s3)cc(F)c2n1` [Compound 108, N-(8-fluoro-2-methylimidazo[1,2-a]pyridin-6-yl)-5-((3aR,6aR)-hexahydropyrrolo[3,4-b]pyrrol-5(1H)-yl)thiazolo[5,4-b]pyridine-2-carboxamide], less than 100 nM. To `COc1nc(NC(=O)c2nc3ccc(N4CCC5(CCCN5C)C4)nc3s2)cn2cc(C)nc12` (stereo not drawn) [Compound 109, N-(8-methoxy-2-methylimidazo[1,2-a]pyrazin-6-yl)-5-(1-methyl-1,7-diazaspiro[4.4]nonan-7-yl)thiazolo[5,4-b]pyridine-2-carboxamide] belongs less than 100 nM; to `Cc1cn2cc(NC(=O)c3nc4ccc(N5C[C@@H]6CCN[C@@H]6C5)nc4s3)cc(F)c2n1` [Compound 110, N-(8-fluoro-2-methylimidazo[1,2-a]pyridin-6-yl)-5-((3aS,6aS)-hexahydropyrrolo[3,4-b]pyrrol-5(1H)-yl)thiazolo[5,4-b]pyridine-2-carboxamide], less than 100 nM; to `Cc1cn2cc(NC(=O)c3nc4ccc(N5CCC6(CCN6)C5)nc4s3)cc(F)c2n1` (stereo not drawn) [Compound 112, N-(8-fluoro-2-methylimidazo[1,2-a]pyridin-6-yl)-5-(1,6-diazaspiro[3.4]octan-6-yl)thiazolo[5,4-b]pyridine-2-carboxamide], less than 100 nM. The molecule `Cc1cn2cc(NC(=O)c3nc4ccc(N(C)C5CC(C)(C)NC(C)(C)C5)nc4s3)cc(F)c2n1` [Compound 113, N-(8-fluoro-2-methylimidazo[1,2-a]pyridin-6-yl)-5-(methyl(2,2,6,6-tetramethylpiperidin-4-yl)amino)thiazolo[5,4-b]pyridine-2-carboxamide] came in with an IC50 of less than 100 nM. For `COc1c(NC(=O)c2nc3ccc(N4CCC5(CN(C)C5)C4)nc3s2)cn2cc(C)nc2c1F` [Compound 114, N-(8-fluoro-7-methoxy-2-methylimidazo[1,2-a]pyridin-6-yl)-5-(2-methyl-2,6-diazaspiro[3.4]octan-6-yl)thiazolo[5,4-b]pyridine-2-carboxamide], the IC50 is less than 100 nM.

In turn, `COc1cn2nc(C)cc2cc1NC(=O)c1nc2ccc(N3CCC4(CCCN4C)C3)nc2s1` (stereo not drawn) [Compound 116, N-(6-methoxy-2-methylpyrazolo[1,5-a]pyridin-5-yl)-5-(1-methyl-1,7-diazaspiro[4.4]nonan-7-yl)thiazolo[5,4-b]pyridine-2-carboxamide] came in with an IC50 of 100 to 1000 nM. To `COc1nc(NC(=O)c2nc3ccc(N4CC[C@@H](N(C)C)C4)nc3s2)cn2cc(C)nc12` [Compound 117, (R)-5-(3-(dimethylamino)pyrrolidin-1-yl)-N-(8-methoxy-2-methylimidazo[1,2-a]pyrazin-6-yl)thiazolo[5,4-b]pyridine-2-carboxamide] belongs less than 100 nM; to `CCN1CCN(c2ccc3nc(C(=O)Nc4cc5cn(C)nc5cc4OC)sc3n2)CC1` [Compound 118, 5-(4-ethylpiperazin-1-yl)-N-(6-methoxy-2-methyl-2H-indazol-5-yl)thiazolo[5,4-b]pyridine-2-carboxamide], 100 to 1000 nM; to `CCN1CCN(c2ccc3nc(C(=O)Nc4cn5cc(C)nc5c(C)n4)sc3n2)CC1` [Compound 119, N-(2,8-dimethylimidazo[1,2-a]pyrazin-6-yl)-5-(4-ethylpiperazin-1-yl)thiazolo[5,4-b]pyridine-2-carboxamide], 100 to 1000 nM.

Molecule `COc1cc2nn(C)cc2cc1NC(=O)c1nc2ccc(N3CC[C@@H](N4CCC4)C3)nc2s1` [Compound 120, (R)-5-(3-(azetidin-1-yl)pyrrolidin-1-yl)-N-(6-methoxy-2-methyl-2H-indazol-5-yl)thiazolo[5,4-b]pyridine-2-carboxamide] yielded an IC50 of 100 to 1000 nM. In turn, `COc1cc2nn(C)cc2cc1NC(=O)c1nc2ccc(N3CC[C@H](N4CCC4)C3)nc2s1` [Compound 121, (S)-5-(3-(azetidin-1-yl)pyrrolidin-1-yl)-N-(6-methoxy-2-methyl-2H-indazol-5-yl)thiazolo[5,4-b]pyridine-2-carboxamide] gave an IC50 of 100 to 1000 nM. To `Cc1cn2cc(NC(=O)c3nc4ccc(N5CCC(N6CCC6)C5)nc4s3)nc(C)c2n1` (stereo not drawn) [Compound 122, 5-(3-(azetidin-1-yl)pyrrolidin-1-yl)-N-(2,8-dimethylimidazo[1,2-a]pyrazin-6-yl)thiazolo[5,4-b]pyridine-2-carboxamide] belongs 1000 to 9000 nM. For `Cc1cn2cc(NC(=O)c3nc4ccc(C5CCNCC5)nc4s3)cc(F)c2n1` [Compound 129, N-(8-fluoro-2-methylimidazo[1,2-a]pyridin-6-yl)-5-(piperidin-4-yl)thiazolo[5,4-b]pyridine-2-carboxamide] the value was less than 100 nM; for `Cc1cn2cc(NC(=O)c3nc4ccc(C5=CC6CCC(C5)N6)nc4s3)cc(F)c2n1` (stereo not drawn) [Compound 130, 5-(8-azabicyclo[3.2.1]oct-2-en-3-yl)-N-(8-fluoro-2-methylimidazo[1,2-a]pyridin-6-yl)thiazolo[5,4-b]pyridine-2-carboxamide], less than 100 nM.

As for `Cc1cn2cc(NC(=O)c3nc4ccc(C5CCN(C)C5)nc4s3)cc(F)c2n1` (stereo not drawn) [Compound 131, N-(8-fluoro-2-methylimidazo[1,2-a]pyridin-6-yl)-5-(1-methylpyrrolidin-3-yl)thiazolo[5,4-b]pyridine-2-carboxamide], the IC50 was less than 100 nM. To `Cc1cn2cc(NC(=O)c3nc4ccc(C5=CC(C)(C)NC(C)(C)C5)nc4s3)cc(F)c2n1` [Compound 132, N-(8-fluoro-2-methylimidazo[1,2-a]pyridin-6-yl)-5-(2,2,6,6-tetramethyl-1,2,3,6-tetrahydropyridin-4-yl)thiazolo[5,4-b]pyridine-2-carboxamide] belongs less than 100 nM.
